Results reported in patent US10254456B2, “Polarizing plate composition, polarizing plate protective film, polarizer, polarizing plate, and liquid crystal display device” (FUJIFILM Corporation, priority 2014, dated 2019).

Assay: Solubility of additive in water
Type: physicochemical
Conditions: 100 ml of pure water at 25° C.
Protocol: The amount of the additive dissolving in 100 ml of pure water at 25° C. was measured and evaluated according to the following criteria.

| Structure (SMILES) | Solubility in water |
| --- | --- |
| O=C1NNC(=O)C1c1ccccc1 [2-1] | A (The amount of the additive dissolving in 100 ml of pure water was equal to or greater than 3 g and less than 5 g.) |
| CC(C)C1C(=O)NNC1=O [2-3] | A (The amount of the additive dissolving in 100 ml of pure water was equal to or greater than 3 g and less than 5 g.) |
| CC(=O)C(Cc1ccccc1S(=O)(=O)[O-])C(=O)c1ccccc1.[Na+] (stereo not drawn) [3-2] | A+ (The amount of the additive dissolving in 100 ml of pure water was equal to or greater than 5 g.) |
| CC1(C)CC(=O)C(Cc2ccccc2S(=O)(=O)O)C(=O)C1 [3-3] | A+ (The amount of the additive dissolving in 100 ml of pure water was equal to or greater than 5 g.) |
| O=C1c2ccccc2C(=O)C1Cc1ccccc1S(=O)(=O)O [3-4] | A+ (The amount of the additive dissolving in 100 ml of pure water was equal to or greater than 5 g.) |
| O=C1C(Cc2ccccc2S(=O)(=O)[O-])C(=O)N(c2ccccc2)N1c1ccccc1.[Na+] [3-6] | A+ (The amount of the additive dissolving in 100 ml of pure water was equal to or greater than 5 g.) |
| CN1C(=O)C(Cc2ccccc2S(=O)(=O)[O-])C(=O)c2ccccc21.[Na+] (stereo not drawn) [3-7] | A+ (The amount of the additive dissolving in 100 ml of pure water was equal to or greater than 5 g.) |
| O=C1Nc2ccccc2NC(=O)C1Cc1ccc(S(=O)(=O)[O-])cc1S(=O)(=O)O.[Na+] [3-8] | A+ (The amount of the additive dissolving in 100 ml of pure water was equal to or greater than 5 g.) |
| O=C1C(Cc2ccc(S(=O)(=O)[O-])cc2S(=O)(=O)O)C(=O)N2CCCCN12.[Na+] [3-9] | A+ (The amount of the additive dissolving in 100 ml of pure water was equal to or greater than 5 g.) |
| O=C1CN(c2ccccc2)C(=O)C1Cc1ccccc1S(=O)(=O)O (stereo not drawn) [3-10] | A+ (The amount of the additive dissolving in 100 ml of pure water was equal to or greater than 5 g.) |
| O=Cc1ccc(CC2C(=O)N(c3ccccc3)N(c3ccc(S(=O)(=O)[O-])cc3)C2=O)cc1.[Na+] (stereo not drawn) [5-1] | A+ (The amount of the additive dissolving in 100 ml of pure water was equal to or greater than 5 g.) |
| O=CC1C(=O)N(c2ccccc2)N(c2ccc(S(=O)(=O)[O-])cc2)C1=O.[Na+] (stereo not drawn) [5-5] | A+ (The amount of the additive dissolving in 100 ml of pure water was equal to or greater than 5 g.) |
| O=C1NC(=O)N(Cc2ccccc2)C(=O)C1c1ccccc1 (stereo not drawn) [Organic acid 1, reference compound] | C (The amount of the additive dissolving in 100 ml of pure water was less than 1 g.) |
| Nc1c(F)c(F)c(C(=O)O)c(F)c1F [Organic acid 2, reference compound] | A (The amount of the additive dissolving in 100 ml of pure water was equal to or greater than 3 g and less than 5 g.) |
| [Cl-].[Cl-].[Zn+2] [ZnCl2, reference compound] | A+ (The amount of the additive dissolving in 100 ml of pure water was equal to or greater than 5 g.) |
